Measurements: publication PMC5526996, “Structural basis for dolichylphosphate mannose biosynthesis” (Nature Communications, 2017)
One block for each compound: values may come before it.

Assays:
[1] = molecular target: T1, PfDPMS (Pyrococcus furiosus, UniProt Q8U4M3); test: X-ray crystallography; format: binding; conditions: formed in reaction mixture at 60 °C; GDP bound, metal departed
T1 construct: gene PF0058; E. coli C41(DE3) membranes, DDM or LDAO solubilised, mainly monomer
T1 sequence (Q8U4M3 1-352): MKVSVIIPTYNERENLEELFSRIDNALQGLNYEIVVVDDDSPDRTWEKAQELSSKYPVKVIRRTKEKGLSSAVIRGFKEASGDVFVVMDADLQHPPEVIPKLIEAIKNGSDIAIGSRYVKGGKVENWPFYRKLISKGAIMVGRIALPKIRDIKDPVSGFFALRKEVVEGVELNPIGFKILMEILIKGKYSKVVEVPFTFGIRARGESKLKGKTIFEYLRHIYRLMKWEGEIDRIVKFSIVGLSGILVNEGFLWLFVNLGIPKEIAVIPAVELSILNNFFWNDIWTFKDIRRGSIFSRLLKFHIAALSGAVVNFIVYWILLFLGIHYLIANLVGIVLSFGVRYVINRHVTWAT

[2] = molecular target: T1, PfDPMS; test: thermal shift, heat precipitation with SDS-PAGE densitometry; format: binding; conditions: detergent-solubilised; compared with no Dol-P
[3] = molecular target: T1, PfDPMS; test: phosphate-coupled glycosyltransferase assay (malachite green); format: biochemical; conditions: 0.23 mM donor, Dol-P acceptor, 75 °C, pH 7.5

X-ray crystallography [1]: 5MM1 (PfDPMS•GDP•Dol55-P-Man)
Structure (SMILES): CC(C)=CCC/C(C)=C/CC/C(C)=C/CC/C(C)=C\CC/C(C)=C\CC/C(C)=C\CC/C(C)=C\CC/C(C)=C\CC/C(C)=C\CC/C(C)=C\CC[C@H](C)CCOP(=O)(O)O[C@@H]1O[C@H](CO)[C@@H](O)[C@H](O)[C@@H]1O [Dol55-P-Man]

ΔTm [2]: 13.3 °C
Structure (SMILES): CC(C)=CCC/C(C)=C/CC/C(C)=C/CC/C(C)=C\CC/C(C)=C\CC/C(C)=C\CC/C(C)=C\CC/C(C)=C\CC/C(C)=C\CC/C(C)=C\CC[C@H](C)CCOP(=O)(O)O [Dol55-P]

Structure (SMILES): Nc1nc2c(ncn2[C@@H]2O[C@H](COP(=O)(O)OP(=O)(O)O[C@H]3O[C@H](CO)[C@@H](O)[C@H](O)[C@H]3O)[C@@H](O)[C@H]2O)c(=O)[nH]1 [GDP-Glc]
phosphate-coupled glycosyltransferase assay (malachite green) [3]: four-fold higher product formation with GDP-Man compared with GDP-Glc
